Test results as given in US12194080B2, “Methods for identification, assessment, prevention, and treatment of metabolic disorders using PM20D1 and N-lipidated amino acids” (Dana-Farber Cancer Institute, Inc., priority 2015, dated 2025).

Legend:
[1] = tested on: Diet induced obese (DIO) mice; experiment: Indirect calorimetry (CLAMS) of high fat diet/DIO mice treated with N-acyl amino acids; assay type: in vivo, mouse
Protocol: (§1) Animal experiments were performed according to procedures approved by the Beth Israel Deaconess Medical Center IACUC. Mice were maintained in 12 h light-dark cycles at 22° C. and fed a standard irradiated rodent chow diet. All experiments on wild-type mice were performed with male C57BL/6 mice purchased from Jackson Laboratories, except for the AAV experiments, which were performed with male C57BL/6 mice from Charles River. UCP1-KO (stock #017476) and 16-20 week DIO mice (stock #380050) were obtained from Jackson Laboratories. For AAV injection experiments, mice were gently warmed using a 250 W clear infrared heat lamp, immobilized, and injected via tail vein with 10^10 virus/mouse (diluted in saline) in a total volume of 100 μl/mouse. Where indicated, mice were placed on high-fat diet (60% fat, Research Diets). For cold exposure experiments, mice were group housed and placed at 4° C. for the indicated times. For the preparation of C18:1-Phe for in vivo injections, compounds were dissolved in 18:1:1 v/v/v saline:Kolliphor® EL (Sigma Aldrich):DMSO and sonicated until homogeneous. Mice were administered compounds at 5 μl/g body weight at the indicated doses. For all injection experiments, mice were mock injected with saline daily for 3 days prior to the start of the experiments. For glucose tolerance tests (GTTs), mice received their final dose of compound the day prior to the assay and were then fasted overnight. Glucose was administered at 1.5 g/kg.
(§2) Energy expenditure, O2 consumption, CO2 production, respiratory exchange ratio, total locomotor activity, and food intake measurements were made with a 16-cage Columbus Instruments Oxymax Comprehensive Lab Animal Monitoring System (CLAMS) at ambient room temperature (21-23° C.). Mice were acclimated for one day in metabolic cages prior to data collection. Whole-body composition was assessed with an EchoMRI™ 3-in-1 on conscious mice.

[2] = tested on: primary inguinal fat cells, primary BAT cells, C2C12 cells, and U2OS cells; experiment: Uncoupled respiration cellular assays (variety of cell types); assay type: cell-based; conditions: N-acyl amino acids at 10-100 uM
U2OS cells = experiment: Cellular oxygen consumption rate (uncoupled respiration), U2OS cells; assay type: cell-based, human; conditions: 50 μM, after oligomycin 1 μM
Protocol: C2C12, U2O5, and 293A cells were cultured in DMEM with 10% FBS and pen/strep. Primary inguinal (iWAT) and brown (BAT) adipocytes were obtained as follows. The stromal-vascular fraction of inguinal (iWAT) pad from 4-12 week old male mice was dissected, minced, and digested for 45 min. at 37° C. in PBS containing 10 mM CaCl2, 2.4 U/ml dispase II (Roche), and 1.5 U/ml collagenase D (Roche). The stromal-vascular fraction of brown fat (BAT) pads from newborn (P1-P14) pups was dissected, minced, and digested for 45 min at 37° C. in PBS containing 1.3 mM CaCl2, 120 mM NaCl, 5 mM KCl, 5 mM glucose, 100 mM HEPES, 4% BSA, and 1.5 mg/ml collagenase B (Roche). Digested tissue was diluted with adipocyte culture media (DMEM/F-12, GlutaMAX™ supplement, Life Technologies, with 10% FBS and pen/strep) and centrifuged (600×g for 10 min.). The pellet was resuspended in 10 ml adipocyte culture media, strained through a 40 μm filter, and plated. Differentiation was induced by application of an adipogenic cocktail containing 5 μg/ml insulin (Sigma), 5 μM dexamethasone (Sigma), 250 μM isobutylmethylxanthine (Sigma), and 1 μM rosiglitazone (Cayman) for 2 days. Two days after induction, cells were maintained in adipocyte culture media containing 5 μg/ml insulin and 1 μM rosiglitazone.
Cellular oxygen consumption rates were determined using an XF24 Extracellular Flux Analyzer (Seahorse Biosciences). Oligomycin was purchased from EMD Millipore, and FCCP and rotenone were purchased from Sigma. C2C12 or U2OS cells were seeded at 30,000 or 50,000 cells/well, respectively in an XF24 cell culture microplate (V7-PS, Seahorse Bioscience) and analyzed the following day. Primary iWAT or BAT adipocytes were seeded at 15,000 cells/well, differentiation was induced the following day as described, and the cells were analyzed on day 5. On the day of analysis, the cells were washed once with Seahorse respiration buffer (8.3 g/1 DMEM, 1.8 g/l NaCl, 1 mM pyruvate, 20 mM glucose, pen/strep), placed in 0.5 ml Seahorse respiration buffer, and incubated in a CO2-free incubator for 1 hr. Port injection solutions were prepared as follows (final concentrations in assay in parentheses): 10 μM oligomycin (1 μM final), […] amino acid (50 μM final), 2 μM FCCP (0.2 μM final), and 30 μM rotenone (3 μM final). The Seahorse program was run as follows: basal measurement, 3 cycles; inject port A (oligomycin), 3 cycles; inject port B (compounds), 8 cycles; inject port C (FCCP), 3 cycles; inject port D (rotenone), 3 cycles. Each cycle consisted of mix 4 min, wait 0 min, and measure 2 min. For data expressed as a percentage of oligomycin-treated basal, the respiration at cycle 6 was normalized to 100%, and the maximum respiration at any time point between cycles 7 and 15 inclusive was used.

BAT mitochondria = experiment: Respiration of isolated crude BAT mitochondria; assay type: biochemical, mouse; conditions: 10-100 μM; 10 mM pyruvate and 5 mM malate as substrates
Protocol: BAT pads from ten 6-12 week old male mice were harvested and minced on ice in isolation buffer (250 mM sucrose, 5 mM HEPES, and 1 mM EGTA) supplemented with 2% fatty acid-free BSA (Sigma). The tissue was then homogenized in a Teflon homogenizer and centrifuged (8,500×g, 10 min, 4° C.). The supernatant was discarded, the pellet was re-suspended in 20 ml isolation buffer supplemented with 1% fatty acid-free BSA, and centrifuged (700×g, 10 min, 4° C.). The supernatant was centrifuged one final time (8,500×g, 10 min, 4° C.). The pellet was re-suspended in isolation buffer supplemented with 1% fatty acid-free BSA (200 μl) to yield crude BAT mitochondria at 50-80 mg/ml. For respiration measurements, BAT mitochondria were diluted to in mitochondria respiration buffer (5 mM KCl, 4 mM KH2PO4, 5 mM HEPES, 1 mM EGTA, 1% fatty acid free BSA, 10 mM pyruvate, 5 mM malate, and 1 mM GDP) and plated at 15 μg/well (50 μl total volume) in an XF24 cell culture microplate. The plate was centrifuged (1000×g, 20 min, 4° C.), additional pre-warmed mitochondrial respiration buffer was added (450 μl), and respiration was measured on a XF24 Extracellular Flux Analyzer. The Seahorse program was run as follows: basal measurement, 2 cycles; inject port A (compounds), 1 cycle, inject port B (FCCP), 1 cycle, inject port C (rotenone), 1 cycle. Each cycle consisted of mix 0.5 min, wait 0 min, measure 2 min. […]

[3] = tested on: Diet induced obese (DIO) mice; experiment: Chronic daily i.p. administration of N-acyl amino acids to DIO mice (body weight, food intake, body composition, GTT); assay type: in vivo, mouse; conditions: chronic treatment, C18:1-Phe 30 or 50 mg/kg/day, C20:4-Gly 15 mg/kg/day, i.p.
Protocol: as §1, §2

[4] = daily i.p.: C18:1-Leu 25, C18:1-Phe 30, C20:4-Gly 15 mg/kg/day

Question: `CCCCCCCC/C=C\CCCCCCCC(=O)N[C@@H](Cc1ccccc1)C(=O)O` [C18:1-Phe, Oleoyl-L-phenylalanine] was tested. Which movement ([1]; 16-week high fat diet mice, 10 mg/kg daily, days 5 and 6) did it give?
Answer: similar

Question: And the VO2 [1, 4]?
Answer: significantly augmented

Question: And the movement [1, 4]?
Answer: no effects

Question: What about the “uncoupled respiration in cells” value [2] of the same compound?
Answer: increased uncoupled respiration

Question: And the “uncoupling activity (uncoupled respiration)” value (U2OS cells)?
Answer: possessed uncoupling activity

Question: And the “respiration of isolated mitochondria” value (BAT mitochondria)?
Answer: increased respiration in a dose-dependent manner

Question: What about the food intake [3] of the same compound?
Answer: reduced food intake
